# Patent publication US20080003214A1, “Medicaments Comprising Carbonyl Compounds, And The Use Thereof” (priority 2004, published 2008)
# Like-named read-outs stand apart in the source and are kept apart here.
# Experiments:
# factor Xa = factor Xa (Homo sapiens, UniProt P00742); assay: Inhibition of factor Xa (FXa-IC50); assay type: biochemical
# Text: The inhibition of factor Xa by the compounds according to the invention and the measurement of the anticoagulant and antithrombotic activity can be determined by conventional in-vitro or in-vivo methods. A suitable method is described, for example, by J. Hauptmann et al. in Thrombosis and Haemostasis 1990, 63, 220-223.
# The inhibition of factor Xa can be measured, for example by the method of T. Hara et al. in Thromb. Haemostas. 1994, 71, 314-319.
# [1] = Table 1, headed 'Affinity to receptors', read-out: FXa-IC50
# Sequence of factor Xa (P00742 235-488 limits assumed): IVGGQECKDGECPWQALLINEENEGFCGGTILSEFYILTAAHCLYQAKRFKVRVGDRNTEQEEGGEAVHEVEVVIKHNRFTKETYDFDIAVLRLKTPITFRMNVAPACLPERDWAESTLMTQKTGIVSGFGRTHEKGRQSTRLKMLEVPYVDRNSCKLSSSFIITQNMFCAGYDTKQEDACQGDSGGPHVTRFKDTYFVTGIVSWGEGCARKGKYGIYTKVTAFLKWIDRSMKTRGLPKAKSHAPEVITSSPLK
# Sequence of factor Xa (P00742 41-179 partner limits assumed): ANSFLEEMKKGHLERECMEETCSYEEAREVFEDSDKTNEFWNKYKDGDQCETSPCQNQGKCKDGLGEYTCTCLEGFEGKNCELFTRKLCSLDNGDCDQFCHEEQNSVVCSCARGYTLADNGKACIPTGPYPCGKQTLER
IC50 (factor Xa; read-out: IC50(Xa)) [nM],Structure (SMILES),IC50 (factor Xa; [1]) [nM],other results
25,"Nc1ccc(O[C@H]2C[C@H](C(=O)Nc3ccc(N4CCOCC4=O)cc3)N(C(=O)Nc3ccc(Cl)cc3)C2)cc1 [Example 13-16, 1-N-[(4-chlorophenyl)]-2-N-{[4-(3-oxomorpholin-4-yl)phenyl]}-(2R,4S)-4-(4-aminophenoxy)pyrrolidine-1,2-dicarboxamide]",–,–
9.7,"O=C(Nc1ccc(N2CCOCC2=O)cc1)[C@H]1C[C@@H](OCC(F)(F)F)CN1C(=O)Nc1ccc(Cl)cc1 [Example 13-18, 1-N-[(4-chlorophenyl)]-2-N-{[4-(3-oxomorpholin-4-yl)phenyl]}-(2R,4R)-4-(2,2,2-trifluoroethoxy)pyrrolidine-1,2-dicarboxamide]",–,–

# Further lines, the compound ahead of its results:
Structure (SMILES),IC50 (factor Xa; read-out: IC50(Xa)) [nM],IC50 (factor Xa; [1]) [nM],other results
"Cc1nn(-c2ccc(NC(=O)[C@H]3C[C@@H](OC(C)C)CN3C(=O)Nc3ccc(Cl)cc3)cc2)c(=N)s1 [1-N-[(4-chlorophenyl)]-2-N-{[4-(2-imino-5-methyl-1,3,4-thiadiazol-3-yl)phenyl]}-(2R,4R)-4-isopropoxypyrrolidine-1,2-dicarboxamide]",3,–,–
"O=C(Nc1ccc(-n2ccccc2=O)cc1)[C@H]1C[C@@H](O)CN1C(=O)Nc1ccc(Cl)cn1 [Compound A6, 1-N-[(5-chloropyridin-2-yl)]-2-N-{[4-(2-oxo-2H-pyridin-1-yl)phenyl]}-(2R,4R)-4-hydroxypyrrolidine-1,2-dicarboxamide]",–,3.7,–
O=C(Nc1ccc(N2CCOCC2=O)cc1)[C@H]1CCCN1C(=O)c1ccc(Cl)s1 [AB1],–,1800,–
"CCO[C@@H]1C[C@H](C(=O)Nc2ccc(-n3nc(C)sc3=N)cc2)N(C(=O)Nc2ccc(Cl)cc2)C1 [1-N-[(4-chlorophenyl)]-2-N-{[4-(2-imino-5-methyl-1,3,4-thiadiazol-3-yl)phenyl]}-(2R,4R)-4-ethoxypyrrolidine-1,2-dicarboxamide]",4.8,–,–
"O=C(Nc1ccc(N2CCOCC2=O)cc1)[C@H]1CCCN1C(=O)Nc1ccc(Cl)cc1 [Compound A1, 1-N-[(4-chlorophenyl)]-2-N-{[4-(3-oxomorpholin-4-yl)phenyl]}-(R)-pyrrolidine-1,2-dicarboxamide]",–,18,–
"[N-]=[N+]=N[C@H]1C[C@H](C(=O)Nc2ccc(N3CCOCC3=O)cc2)N(C(=O)Nc2ccc(Cl)cc2)C1 [Compound A9, 1-N-[(4-chlorophenyl)]-2-N-{[4-(3-oxomorpholin-4-yl)phenyl]}-(2R,4S)-4-azidopyrrolidine-1,2-dicarboxamide]",–,–,melting point: 145 °C
"CO[C@@H]1C[C@H](C(=O)Nc2ccc(-n3nc(C)sc3=N)cc2)N(C(=O)Nc2ccc(Cl)cc2)C1 [1-N-[(4-chlorophenyl)]-2-N-{[4-(2-imino-5-methyl-1,3,4-thiadiazol-3-yl)phenyl]}-(2R,4R)-4-methoxypyrrolidine-1,2-dicarboxamide]",6.1,–,–
